According to patent US8623859B2, “Bradykinin B1 antagonists” (Evotec AG, priority 2008, dated 2014):
Counter-ions that a name gives are not always drawn.

Biological target: T1, human B1 (Homo sapiens, UniProt P46663)
T1 construct: host or cells: CHO-K1
T1 sequence (P46663 1-353): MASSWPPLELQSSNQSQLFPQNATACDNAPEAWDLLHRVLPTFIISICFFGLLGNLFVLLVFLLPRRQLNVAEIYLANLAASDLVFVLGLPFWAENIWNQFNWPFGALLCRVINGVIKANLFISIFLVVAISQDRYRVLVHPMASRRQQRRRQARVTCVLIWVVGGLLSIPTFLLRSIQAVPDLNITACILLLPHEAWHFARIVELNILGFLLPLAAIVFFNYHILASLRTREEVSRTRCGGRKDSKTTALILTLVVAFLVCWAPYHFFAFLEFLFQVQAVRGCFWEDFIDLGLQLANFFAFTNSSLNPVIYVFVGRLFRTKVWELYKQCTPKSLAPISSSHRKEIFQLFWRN
Test: Calcium flux assay for Bradykinin B1 antagonist, CHO-K1 cell line expressing human B1
Format: cell-based
Settings: CHO-K1 cells expressing human B1, agonist Lys-(Des-Arg)-Bradykinin, read-out: Potency (IC50 value against human B1)
How it was run: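 CHO-K1 cells expressing human B1, loaded with 5 μM Fluo-4AM (2 h, 37° C) in HEPES buffer pH 7.4 with probenecid and 0.1% BSA, were preincubated 30 min at 25° C with compound (8 concentrations, triplicate, 1% DMSO) before B1 agonist addition. Ca2+ fluorescence monitored at 538 nm; background-normalized integrated values plotted against log antagonist concentration.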

| IC50 | Structure (SMILES) |
| --- | --- |
| 0.01 to 0.1 µM | COc1cc(C)c(S(=O)(=O)N(C)Cc2nnc(C(=O)N(C)Cc3cccc(CN4CCCC4)c3)o2)c(C)c1 [Ex 289, 5-({[(4-Methoxy-2,6-dimethylphenyl)sulfonyl](methyl)amino}methyl)-N-methyl-N-[3-(pyrrolidin-1-ylmethyl)benzyl]-1,3,4-oxadiazole-2-carboxamide] |
| < 0.01 µM | COc1cc(C)c(S(=O)(=O)N(C)Cc2nc(C(=O)N3CCN(CCCN4CCCC4)CC3)co2)c(C)c1 [Ex 174, 4-Methoxy-N,2,6-trimethyl-N-[(4-{[4-(3-pyrrolidin-1-ylpropyl)piperazin-1-yl]carbonyl}-1,3-oxazol-2-yl)methyl]benzenesulfonamide] |
| 0.01 to 0.1 µM | COc1cc(C)c(S(=O)(=O)N(C)Cc2cc(C(=O)NCCc3ccc(C4=NCCN4)cc3)c(C)o2)c(C)c1 [Ex 61, N-{2-[4-(4,5-dihydro-1H-imidazol-2-yl)phenyl]ethyl}-5-({[(4-methoxy-2,6-dimethylphenyl)sulfonyl](methyl)amino}methyl)-2-methylfuran-3-carboxamide] |
| 0.01 to 0.1 µM | COc1cc(C)c(S(=O)(=O)N(Cc2cc(C(=O)N3CCN(CCCN(C)C)CC3)co2)C2CC2)c(C)c1 [Ex 118, N-Cyclopropyl-N-{[4-({4-[3-(dimethylamino)propyl]piperazin-1-yl}carbonyl)furan-2-yl]methyl}-4-methoxy-2,6-dimethylbenzenesulfonamide trifluoroacetate] |
| 0.01 to 0.1 µM | COc1cc(C)c(S(=O)(=O)N(Cc2nc(C(=O)N(C)Cc3ccc4c(c3)CN(C)C4)co2)C2CC2)c(C)c1 [Ex 225, 2-({Cyclopropyl[(4-methoxy-2,6-dimethylphenyl)sulfonyl]amino}methyl)-N-methyl-N-[(2-methyl-2,3-dihydro-1H-isoindol-5-yl)methyl]-1,3-oxazole-4-carboxamide trifluoroacetate] |
| < 0.01 µM | COc1cc(C)c(S(=O)(=O)N(C)Cc2nc(C(=O)N3CCN(CC4CCN(C)CC4)CC3)co2)c(C)c1 [Ex 175, 4-Methoxy-N,2,6-trimethyl-N-{[4-({4-[(1-methylpiperidin-4-yl)methyl]piperazin-1-yl}carbonyl)-1,3-oxazol-2-yl]methyl}benzenesulfonamide] |
| 0.1 to 1 µM | COc1cc(C)c(S(=O)(=O)N(C)Cc2nnc(C(=O)N3CCN(CC4CCN(C)CC4)CC3)[nH]2)c(C)c1 [Ex 338, 4-Methoxy-N,2,6-trimethyl-N-{[5-({4-[(1-methylpiperidin-4-yl)methyl]piperazin-1-yl}carbonyl)-4H-1,2,4-triazol-3-yl]methyl}benzenesulfonamide] |
| 0.01 to 0.1 µM | COc1cc(C)c(S(=O)(=O)N(Cc2cc(C(=O)N(C)Cc3ccc(CN4CCC(O)C4)cc3)co2)C2CC2)c(C)c1 (stereo not shown) [Ex 141, 5-({Cyclopropyl[(4-methoxy-2,6-dimethylphenyl)sulfonyl]amino}methyl)-N-{4-[(3-hydroxypyrrolidin-1-yl)methyl]benzyl}-N-methylfuran-3-carboxamide] |
| < 0.01 µM | CN(CCc1ccc(C2=NCCN2)cc1)C(=O)c1coc(CN(C)S(=O)(=O)c2c(Cl)cc(Br)cc2Cl)c1 [Ex 24, 5-({[(4-bromo-2,6-dichlorophenyl)sulfonyl](methyl)amino}methyl)-N-{2-[4-(4,5-dihydro-1H-imidazol-2-yl)phenyl]ethyl}-N-methylfuran-3-carboxamide] |
| < 0.01 µM | COc1cc(C)c(S(=O)(=O)N(Cc2nc(C(=O)N(C)Cc3ccc(CN4CCCC4)cc3)co2)C2CC2)c(C)c1 [Ex 75, 2-({Cyclopropyl[(4-methoxy-2,6-dimethylphenyl)sulfonyl]amino}methyl)-N-methyl-N-[4-(pyrrolidin-1-ylmethyl)benzyl]-1,3-oxazole-4-carboxamide] |
| 0.1 to 1 µM | CN(Cc1ccc(CN2CCCC2)cc1)C(=O)c1coc(CN(C2CC2)S(=O)(=O)c2ccccc2C(F)(F)F)n1 [Ex 222, 2-[(Cyclopropyl{[2-(trifluoromethyl)phenyl]sulfonyl}amino)methyl]-N-methyl-N-[4-(pyrrolidin-1-ylmethyl)benzyl]-1,3-oxazole-4-carboxamide trifluoroacetate] |
| 0.01 to 0.1 µM | COc1cc(C)c(S(=O)(=O)N(Cc2cc(C(=O)NCc3ccc(CN4CCCC4)cc3)co2)C2CC2)c(C)c1 [Ex 56, 5-({Cyclopropyl[(4-methoxy-2,6-dimethylphenyl)sulfonyl]amino}methyl)-N-[4-(pyrrolidin-1-ylmethyl)benzyl]furan-3-carboxamide] |
| 0.1 to 1 µM | COc1cc(C)c(S(=O)(=O)N(Cc2nc(C(=O)N(C)CCOc3ccncc3)co2)C2CC2)c(C)c1 [Ex 257, 2-({Cyclopropyl[(4-methoxy-2,6-dimethylphenyl)sulfonyl]amino}methyl)-N-methyl-N-[2-(pyridin-4-yloxy)ethyl]-1,3-oxazole-4-carboxamide] |
| 0.01 to 0.1 µM | COc1cc(C)c(S(=O)(=O)N(Cc2nnc(C(=O)N3CCN(C4CCN(C)CC4)CC3)o2)C2CC2)c(C)c1 [Ex 271, N-Cyclopropyl-4-methoxy-2,6-dimethyl-N-[(5-{[4-(1-methylpiperidin-4-yl)piperazin-1-yl]carbonyl}-1,3,4-oxadiazol-2-yl)methyl]benzenesulfonamide] |
| < 0.01 µM | COc1cc(C)c(S(=O)(=O)N(Cc2nc(C(=O)N3CCN(Cc4cccnc4)CC3)co2)C2CC2)c(C)c1 [Ex 163, N-Cyclopropyl-4-methoxy-2,6-dimethyl-N-[(4-{[4-(pyridin-3-ylmethyl)piperazin-1-yl]carbonyl}-1,3-oxazol-2-yl)methyl]benzenesulfonamide trifluoroacetate] |
| < 0.01 µM | COc1cc(C)c(S(=O)(=O)N(C)Cc2nc(C(=O)N(C)Cc3ccc(CN4CCC(C(=O)N(C)C)C4)cc3)co2)c(C)c1 (stereo not shown) [Ex 171, N-(4-{[3-(Dimethylcarbamoyl)pyrrolidin-1-yl]methyl}benzyl)-2-({[(4-methoxy-2,6-dimethylphenyl)sulfonyl](methyl)amino}methyl)-N-methyl-1,3-oxazole-4-carboxamide] |
| 0.1 to 1 µM | COc1cc(C)c(S(=O)(=O)N(C)Cc2nnc(C(=O)N3CCN(CCN4CCCC4)CC3)s2)c(C)c1 [Ex 326, 4-Methoxy-N,2,6-trimethyl-N-[(5-{[4-(2-pyrrolidin-1-ylethyl)piperazin-1-yl]carbonyl}-1,3,4-thiadiazol-2-yl)methyl]benzenesulfonamide] |
| 0.01 to 0.1 µM | COc1cc(C)c(S(=O)(=O)N(C)Cc2cc(C(=O)N(C)Cc3ccc(CN4CCC(OC)CC4)cc3)co2)c(C)c1 [Ex 127, 5-({[(4-Methoxy-2,6-dimethylphenyl)sulfonyl](methyl)amino}methyl)-N-{4-[(4-methoxypiperidin-1-yl)methyl]benzyl}-N-methylfuran-3-carboxamide] |
| 0.1 to 1 µM | COc1cc(C)c(S(=O)(=O)N(Cc2nc(C(=O)N3CCN(c4cccnc4)CC3)co2)C2CC2)c(C)c1 [Ex 226, N-Cyclopropyl-4-methoxy-2,6-dimethyl-N-({4-[(4-pyridin-3-ylpiperazin-1-yl)carbonyl]-1,3-oxazol-2-yl}methyl)benzenesulfonamide] |
| 0.1 to 1 µM | COc1cc(C)c(S(=O)(=O)N(C)Cc2nnc(C(=O)N(C)Cc3ccc4c(c3)CN(C)C4)o2)c(C)c1 [Ex 288, 5-({[(4-Methoxy-2,6-dimethylphenyl)sulfonyl](methyl)amino}methyl)-N-methyl-N-[(2-methyl-2,3-dihydro-1H-isoindol-5-yl)methyl]-1,3,4-oxadiazole-2-carboxamide] |
| 0.1 to 1 µM | COc1cc(C)c(S(=O)(=O)N(Cc2nc(C(=O)N3CC4CCN(C5CCN(C)CC5)CC4C3)co2)C2CC2)c(C)c1 (stereo not shown) [Ex 206, N-Cyclopropyl-4-methoxy-2,6-dimethyl-N-[(4-{[5-(1-methylpiperidin-4-yl)octahydro-2H-pyrrolo[3,4-c]pyridin-2-yl]carbonyl}-1,3-oxazol-2-yl)methyl]benzenesulfonamide trifluoroacetate] |
| < 0.01 µM | COc1cc(C)c(S(=O)(=O)N(Cc2nc(C(=O)N(C)Cc3ccc(CN4CCC(C)(O)C4)cc3)co2)C2CC2)c(C)c1 (stereo not shown) [Ex 198, 2-({Cyclopropyl[(4-methoxy-2,6-dimethylphenyl)sulfonyl]amino}methyl)-N-{4-[(3-hydroxy-3-methylpyrrolidin-1-yl)methyl]benzyl}-N-methyl-1,3-oxazole-4-carboxamide] |
| < 0.01 µM | COc1cc(C)c(S(=O)(=O)N(Cc2nnc(C(=O)N3CCN(C4CCN(C)CC4)CC3)s2)C2CC2)c(C)c1 [Ex 334, N-Cyclopropyl-4-methoxy-2,6-dimethyl-N-[(5-{[4-(1-methylpiperidin-4-yl)piperazin-1-yl]carbonyl}-1,3,4-thiadiazol-2-yl)methyl]benzenesulfonamide] |
| 0.01 to 0.1 µM | Cc1cc(O)cc(C)c1S(=O)(=O)N(C)Cc1cc(C(=O)N(C)CCc2ccc(C3=NCCN3)cc2)co1 [Ex 87, N-{2-[4-(4,5-Dihydro-1H-imidazol-2-yl)phenyl]ethyl}-5-({[(4-hydroxy-2,6-dimethylphenyl)sulfonyl](methyl)amino}methyl)-N-methylfuran-3-carboxamide, trifluoroacetate] |
| 0.01 to 0.1 µM | COc1cc(C)c(S(=O)(=O)N(Cc2cc(C(=O)N3CCN(CCCN4CCCC4)CC3)co2)C2CC2)c(C)c1 [Ex 115, N-Cyclopropyl-4-methoxy-2,6-dimethyl-N-[(4-{[4-(3-pyrrolidin-1-ylpropyl)piperazin-1-yl]carbonyl}furan-2-yl)methyl]benzenesulfonamide trifluoroacetate] |
